In paper PMC10959927, “Platinum iodido drugs show potential anti-tumor activity, affecting cancer cell metabolism and inducing ROS and senescence in gastrointestinal cancer cells” (Communications Biology, 2024):
Where “and” joins values, the source holds several entries; their conditions need not be identical. Identical values can stand only once.

Experiments:
Format in all cases: cell-based, human
PANC1 cells [1] = test: Western blotting (p-p53, p-JNK, p-p38, p-ERK, p-CHK1/2, Mcl1, BID, BAX); details: for fold change p-ERK vs Tubulin / fold change p-JNK vs Tubulin / fold change p-p38 vs Tubulin / fold change p-p53 vs Tubulin: PANC1, Fig. 4A, replicate values
Procedure: (§1) Total protein extracts were obtained by adding the lysis buffer: 25 mM HEPES pH 7.5, 0.3 M NaCl, 1.5 mM MgCl2, 0.2 mM EDTA, 0.5 mM DTT, 20 mM β-glicerophosphate, 0.1 mM Na3VO4, 0.1% triton X-100; in the presence of protease inhibitors. Twenty μg of protein per sample were loaded and resolved using 8%, 10% or 15% SDS-PAGE polyacrylamide gels, and then transferred onto PVDF membranes, followed by immunodetection using appropriate antibodies, purchased from Santa Cruz Technology: Mcl-1 (sc-819), Cell Signaling Technology: BIM, BID, BAX (#9942), p-p38 (1:2000, #4631), p-p53^ser15 (#9284), p-ERK1/2 (1:2000, #9106), p-CHK1^ser345 and p-CHK2^ser19 (#9931), Promega Corporation-Spain: p-JNK (#V7932), or Sigma-Aldrich: α-tubulin (1:10000, #TP026). Unless indicated, all antibodies were diluted 1:1000. Secondary antibodies conjugated with horseradish peroxidase were purchased from BioRad, and chemiluminescence detection was performed using ECL (Santa Cruz Biotechnology).

AGS cells [2] = test: as above; details: for fold change p-ERK vs Tubulin / fold change p-JNK vs Tubulin / fold change p-p38 vs Tubulin / fold change p-p53 vs Tubulin: Fig. 4A, replicate values; for fold change BID full length vs Tubulin / fold change MCL1 vs Tubulin: Fig. S3B
Procedure: as §1

MKN45 cells [3] = test: Clonogenic (CFU) assay with or without NAC; details: 10 days
Procedure: (§2) For the clonogenic assay we used two different approaches. […] Then, cells were cultured in a 6-well plate at a very low concentration (2 × 10^3 cells per well) and incubated for 10 days. […] To evaluate the role of ROS in cell proliferation, we supplemented the growth medium with 0.5 mM NAC. After 10 days, the cells were fixed with 1% glutaraldehyde and stained with 0.1% crystal violet. The number of colonies was quantified directly and reflected as CFUs: Colony Forming Units.

AGS cells [4] = test: Clonogenic (CFU) assay with or without NAC; details: 10 days
Procedure: as §2

PANC1 cells [5] = test: Ratio GSH/GSSG, colorimetric kit
Procedure: (§3) GSH and GSSG levels were determined in AGS and PANC1 cells after 3 and 24 h of treatment with the compounds (using H2O2 as a positive control) with the Glutathione Colorimetric Detection Kit (ThermoFisher) following the manufacturer’s instructions. Thirty minutes after adding the Colorimetric Detection Reagent and the Reaction Mixture, the absorbance was read at 405 nm. A standard curve was generated with each assay to interpolate the sample results. To measure GSSG, standards and samples must be diluted with the Sample Diluent containing 2-vinylpyridine.

AGS cells [6] = test: Ratio GSH/GSSG, colorimetric kit
Procedure: as §3

AGS cells [7] = test: SA-β-Gal histochemical staining; details: Fig. S4A
Procedure: SA-β-Gal activity was measured following two different approaches. (i) AGS, MKN45 and PANC1 cells (5 × 10^4) were seeded in 24-multiwell dishes and incubated overnight. […] For flow cytometry cell senescence detection, cells were tripsinized, fixed for 15 min with PFA 4% and stained with the CellEvent Senescense Green Flow Cytometry Assay Kit (C10840, Invitrogen) according to manufacturer’s instructions. CellEvent Senescense Green Probe was used at a 1:500 dilution and fluorescence was detected using the filter (Ex488nm/Em530/30) BL1 with a 4-laser Attune NxT Acoustic Cytometer (Thermo Fisher Scientific). […] After 3 h, the treatments were removed, new supplemented medium was added, and cells were incubated for an additional 24 h. Finally, SA-β-Gal staining was performed using the Senescence Cells Histochemical Staining Kit (CS0030-1KT) according to the manufacturer’s instructions.

MKN45 cells [8] = test: Immunofluorescence of γ-H2AX foci; details: Fig. 3B; for foci/cell, number of cells in class: cell count
Procedure: Cells (7 × 10^4) were seeded on 20 mm coverslips. […] Coverslips were incubated for 1 h with the primary antibody (Cell Signaling: H2AX Ser139 (#2595) and 53BP1 (#4937)) at room temperature, followed by a 1 h incubation with the appropriate secondary antibody. DNA was stained with DAPI. Fluorescence microscopy was performed using a NIKON Eclipse 90i. The image analysis was performed using the software program Nikon NIS-Elements and Image J.

CC(C)[NH][Pt@SP3]([I])([I])[NH]C(C)C [I5, trans-[PtI2(isopropylamine)2]]
activation of p53 (p-p53 western blot) (PANC1 cells [1]; PANC1, IC50, 1, 3, 6 and 24 h): did not activate p53
phosphorylation of CHK1/2 (DDR pathway, western blot) (PANC1 cells [1]; PANC1, IC50, 1, 3, 6 or 24 h): did not activate
fold change BAX vs Tubulin (PANC1 cells [1]; PANC1, time 1 h, Fig. S3B): 1.558 fold change and 0.8186 fold change and 1.264 fold change
fold change BAX vs Tubulin (PANC1 cells [1]; PANC1, time 3 h, Fig. S3B): 1.103 fold change and 1.1737 fold change and 1.2 fold change
fold change BAX vs Tubulin (PANC1 cells [1]; PANC1, time 6 h, Fig. S3B): 1.097 fold change and 1.226 fold change and 1.154 fold change
fold change BAX vs Tubulin (PANC1 cells [1]; PANC1, time 24 h, Fig. S3B): 1.153 fold change and 1.646 fold change and 1.378 fold change
fold change BID full length vs Tubulin (PANC1 cells [1]; PANC1, time 24 h, Fig. S3B): 0.5478 fold change and 0.965 fold change and 0.596 fold change
fold change MCL1 vs Tubulin (PANC1 cells [1]; PANC1, time 24 h, Fig. S3B): 1.638 fold change and 3.054 fold change and 2.481 fold change
fold change p-ERK vs Tubulin (PANC1 cells [1]; Time 1 h): 5.052 fold change and 7.4391 fold change and 5.41 fold change
fold change p-JNK vs Tubulin (PANC1 cells [1]; Time 1 h): 2.895 fold change and 2.7686 fold change and 4.719 fold change
fold change p-p38 vs Tubulin (PANC1 cells [1]; Time 1 h): 2.229 fold change and 1.109 fold change and 1.075 fold change
fold change p-p53 vs Tubulin (PANC1 cells [1]; Time 1 h): 0.74 fold change and 1.11 fold change and 0.95 fold change
fold change p-ERK vs Tubulin (PANC1 cells [1]; Time 3 h): 4.573 fold change and 11.3646 fold change and 8.3 fold change
fold change p-JNK vs Tubulin (PANC1 cells [1]; Time 3 h): 1.5726 fold change and 2.305 fold change and 1.813 fold change
fold change p-p38 vs Tubulin (PANC1 cells [1]; Time 3 h): 2.01 fold change and 1.474 fold change and 1.299 fold change
fold change p-p53 vs Tubulin (PANC1 cells [1]; Time 3 h): 0.37 fold change and 1.05 fold change and 0.6 fold change
fold change p-ERK vs Tubulin (PANC1 cells [1]; Time 6 h): 3.1087 fold change and 13.4172 fold change and 7.72 fold change
fold change p-JNK vs Tubulin (PANC1 cells [1]; Time 6 h): 2.264 fold change and 2.75 fold change and 2.02 fold change
fold change p-p38 vs Tubulin (PANC1 cells [1]; Time 6 h): 1.737 fold change and 1.3292 fold change and 1.51 fold change
fold change p-p53 vs Tubulin (PANC1 cells [1]; Time 6 h): 0.46 fold change and 1.28 fold change and 0.68 fold change
fold change p-ERK vs Tubulin (PANC1 cells [1]; Time 24 h): 0.9081 fold change and 11.3435 fold change and 3.15 fold change
fold change p-JNK vs Tubulin (PANC1 cells [1]; Time 24 h): 0.7671 fold change and 1.164 fold change and 1.094 fold change
fold change p-p38 vs Tubulin (PANC1 cells [1]; Time 24 h): 1.276 fold change and 1.422 fold change and 1.33 fold change
fold change p-p53 vs Tubulin (PANC1 cells [1]; Time 24 h): 0.81 fold change and 1.22 fold change and 0.52 fold change
activation of p53 (p-p53 western blot) (AGS cells [2]; IC50, 1, 3, 6 and 24 h): did not activate p53
phosphorylation of CHK1/2 (DDR pathway, western blot) (AGS cells [2]; IC50, 1, 3, 6 or 24 h): did not activate
fold change p-ERK vs Tubulin (AGS cells [2]; Time 1 h): 3.337 fold change and 2.237 fold change and 6.03 fold change
fold change p-JNK vs Tubulin (AGS cells [2]; Time 1 h): 3.178 fold change and 2.647 fold change and 2.394 fold change
fold change p-p38 vs Tubulin (AGS cells [2]; Time 1 h): 1.6079 fold change and 2.911 fold change and 3.19 fold change
fold change p-p53 vs Tubulin (AGS cells [2]; Time 1 h): 0.8674 fold change and 0.8424 fold change and 1.7105 fold change
fold change p-ERK vs Tubulin (AGS cells [2]; Time 3 h): 6.263 fold change and 7.52 fold change and 5.909 fold change
fold change p-JNK vs Tubulin (AGS cells [2]; Time 3 h): 3.912 fold change and 2.163 fold change and 1.799 fold change
fold change p-p38 vs Tubulin (AGS cells [2]; Time 3 h): 0.8627 fold change and 3.016 fold change and 3.496 fold change
fold change p-p53 vs Tubulin (AGS cells [2]; Time 3 h): 0.5433 fold change and 0.6274 fold change and 1.359 fold change
fold change p-ERK vs Tubulin (AGS cells [2]; Time 6 h): 3.858 fold change and 7.71 fold change and 6.1 fold change
fold change p-JNK vs Tubulin (AGS cells [2]; Time 6 h): 2.706 fold change and 2.4308 fold change and 2.197 fold change
fold change p-p38 vs Tubulin (AGS cells [2]; Time 6 h): 1.573 fold change and 3.845 fold change and 3.365 fold change
fold change p-p53 vs Tubulin (AGS cells [2]; Time 6 h): 0.4994 fold change and 0.627 fold change and 1.555 fold change
fold change p-ERK vs Tubulin (AGS cells [2]; Time 24 h): 3.8691 fold change and 7.1 fold change and 5.002 fold change
fold change p-JNK vs Tubulin (AGS cells [2]; Time 24 h): 3.2721 fold change and 2.291 fold change and 2.816 fold change
fold change p-p38 vs Tubulin (AGS cells [2]; Time 24 h): 3.758 fold change and 3.606 fold change and 2.16 fold change
fold change p-p53 vs Tubulin (AGS cells [2]; Time 24 h): 0.7787 fold change and 0.8882 fold change and 1.672 fold change
fold change BID full length vs Tubulin (AGS cells [2]; time 1 h): 0.978 fold change and 1.383 fold change and 0.822 fold change
fold change BID full length vs Tubulin (AGS cells [2]; time 3 h): 0.826 fold change and 0.919 fold change and 0.851 fold change
fold change MCL1 vs Tubulin (AGS cells [2]; time 3 h): 0.354 fold change and 0.557 fold change and 0.657 fold change
fold change BID full length vs Tubulin (AGS cells [2]; time 6 h): 0.842 fold change and 0.933 fold change and 0.854 fold change
fold change MCL1 vs Tubulin (AGS cells [2]; time 24 h): 1.039 fold change and 1.002 fold change and 0.903 fold change
colonies (CFUs), mean ± SD (MKN45 cells [3]; MKN45 + NAC 0.5 mM, IC25 concentration): 99 ± 6
colonies (CFUs), mean ± SD (MKN45 cells [3]; MKN45 + NAC 0.5 mM, IC50 concentration): 52 ± 21
colonies (CFUs), mean ± SD (MKN45 cells [3]; MKN45, IC25 concentration, no NAC): 0
colonies (CFUs), mean ± SD (MKN45 cells [3]; MKN45, IC50 concentration, no NAC): 0
colonies (CFUs), mean ± SD (AGS cells [4]; AGS + NAC 0.5 mM, IC25 concentration): 106 ± 46
colonies (CFUs), mean ± SD (AGS cells [4]; AGS + NAC 0.5 mM, IC50 concentration): 2.3 ± 2.5
colonies (CFUs), mean ± SD (AGS cells [4]; AGS, IC25 concentration, no NAC): 0
colonies (CFUs), mean ± SD (AGS cells [4]; AGS, IC50 concentration, no NAC): 0
GSH/GSSG (PANC1 cells [5]; PANC1, 3, relative to Control = 1): 0.746 and 0.7881 and 0.8512
GSH/GSSG (PANC1 cells [5]; PANC1, 24, relative to Control = 1): 0.8241 and 0.8337 and 0.9592
GSH/GSSG (AGS cells [6]; AGS, 3, relative to Control = 1): 0.9172 and 0.9228 and 0.9268
GSH/GSSG (AGS cells [6]; AGS, 24, relative to Control = 1): 0.5757 and 0.62 and 0.7864
Fold change % Senescence (AGS cells [7]): 58.06% and 57.14% and 43.1%
foci/cell, share of cells in class (Suma 100) (MKN45 cells [8]; class 16-30 foci/cell): 20
foci/cell, number of cells in class (MKN45 cells [8]; class 16-30 foci/cell): 5
foci/cell, share of cells in class (Suma 100) (MKN45 cells [8]; class 31-45 foci/cell): 24
foci/cell, number of cells in class (MKN45 cells [8]; class 31-45 foci/cell): 6
foci/cell, share of cells in class (Suma 100) (MKN45 cells [8]; class 46-60 foci/cell): 20
foci/cell, number of cells in class (MKN45 cells [8]; class 46-60 foci/cell): 5
foci/cell, share of cells in class (Suma 100) (MKN45 cells [8]; class <15 foci/cell): 16
foci/cell, number of cells in class (MKN45 cells [8]; class <15 foci/cell): 4
foci/cell, share of cells in class (Suma 100) (MKN45 cells [8]; class >61 foci/cell): 20
foci/cell, number of cells in class (MKN45 cells [8]; class >61 foci/cell): 5
